Assay results as given in ChEMBL document CHEMBL3769348, “A structureactivity relationship study of the positive allosteric modulator LY2033298 at the M4muscarinic acetylcholine receptor” (Medchemcomm, 2015).
Calls of active or inactive are those of the source. No cut-off for these calls is given here.

Tests used:
Assay type in all cases: cell-based
[1] = biological target: T1, Muscarinic acetylcholine receptor M4 (Homo sapiens) (UniProt P08173); assay: Intrinsic activity at human M4 mAChR expressed in FIpIn-CHO cells assessed as ERK1/2 phosphorylation after 6 mins by Alphascreen assay in the presence of ACh
T1 sequence (whole entry): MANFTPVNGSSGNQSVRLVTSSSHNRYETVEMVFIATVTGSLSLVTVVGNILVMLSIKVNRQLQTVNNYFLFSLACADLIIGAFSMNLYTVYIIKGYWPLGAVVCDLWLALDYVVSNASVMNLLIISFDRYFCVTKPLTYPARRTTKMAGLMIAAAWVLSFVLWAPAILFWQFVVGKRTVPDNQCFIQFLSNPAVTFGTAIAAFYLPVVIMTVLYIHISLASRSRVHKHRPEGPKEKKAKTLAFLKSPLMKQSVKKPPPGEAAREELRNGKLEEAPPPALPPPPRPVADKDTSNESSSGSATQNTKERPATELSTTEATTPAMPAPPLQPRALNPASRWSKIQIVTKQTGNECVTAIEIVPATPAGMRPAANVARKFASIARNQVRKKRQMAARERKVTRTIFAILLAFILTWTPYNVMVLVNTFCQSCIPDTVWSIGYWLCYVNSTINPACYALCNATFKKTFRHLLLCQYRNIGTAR

[2] = biological target: T2, Muscarinic acetylcholine receptor M4 (Homo sapiens, UniProt P08173); assay: Displacement of [3H]NMS from human M4 mAChR expressed in FIpIn-CHO cells after 4 hrs by scintillation counting method in the presence of ACh
T2 sequence (P08173 whole entry): T1 sequence (whole entry)

[3] = biological target: T1, Muscarinic acetylcholine receptor M4 (Homo sapiens); assay: Allosteric modulation of human M4 mAChR expressed in FIpIn-CHO cells assessed as ERK1/2 phosphorylation measured overall cooperativity after 6 mins by Alphascreen assay
[4] = biological target: T1, Muscarinic acetylcholine receptor M4 (Homo sapiens); assay: Allosteric modulation of human M4 mAChR expressed in FIpIn-CHO cells assessed as ERK1/2 phosphorylation after 6 mins by Alphascreen assay in the presence of ACh
[5] = biological target: T1, Muscarinic acetylcholine receptor M4 (Homo sapiens); assay: Displacement of [3H]NMS from human M4 mAChR expressed in FIpIn-CHO cells assessed as ligand affinity after 4 hrs by scintillation counting method in the presence of ACh

| Intrinsic activity [1] | log(IA) [1] | Ki [2] [nM] | Activity [3] | log(activity) [3] | Kb [4] | pKb [4] | Activity [5] | log(activity) [5] | Compound |
| --- | --- | --- | --- | --- | --- | --- | --- | --- | --- |
| 4.6 | 0.66 | – | 28.8 | 1.46 | 2800 nM | 5.55 | – | – | COc1cc(C)c2c(N)c(C(=O)NC3CC3)sc2n1 |
| 0.4 | -0.35 | – | 1.3 | 0.13 | 200 nM | 6.7 | – | – | CCCCCCNC(=O)c1sc2nc(OC)c(Cl)c(C)c2c1N |
| 3.1 | 0.49 | – | 14.1 | 1.15 | 12500 nM | 4.9 | – | – | Cc1nc(C)c2c(N)c(C(=O)NC3CC3)sc2n1 |
| 9.3 | 0.97 | 200 | 61.7 | 1.79 | 800 nM | 6.1 | 95.5 | 1.98 | CCOc1nc2sc(C(=O)NC3CC3)c(N)c2c(C)c1Cl |
| 0.3 | -0.51 | 2700 | 2.5 | 0.4 | 200 nM | 6.81 | 22.4 | 1.35 | CCCCOc1nc2sc(C(=O)NC3CC3)c(N)c2c(C)c1Cl |
| 17.8 | 1.25 | 520 | 81.3 | 1.91 | 300 nM | 6.52 | 347 | 2.54 | COc1nc2sc(C(=O)NC3CC3)c(N)c2c(C)c1Br |
| 8.7 | 0.94 | 4300 | 69.2 | 1.84 | 200 nM | 6.73 | 562 | 2.75 | CCNC(=O)c1sc2nc(OC)c(Cl)c(C)c2c1N |
| 0.2 | -0.75 | – | 2 | 0.3 | 40 nM | 7.42 | – | – | CCCCCCOc1nc2sc(C(=O)NC3CC3)c(N)c2c(C)c1Cl |
| inactive | inactive | – | inactive | inactive | inactive | inactive | – | – | CCCCCC(=O)Nc1c(C(=O)NC2CC2)sc2nc(OC)c(Cl)c(C)c12 |
| inactive | inactive | – | inactive | inactive | inactive | inactive | – | – | CCCC(=O)Nc1c(C(=O)NC2CC2)sc2nc(OC)c(Cl)c(C)c12 |
| 5.9 | 0.77 | – | 52.5 | 1.72 | – | – | – | – | Cc1cc(C)c2c(N)c(C(=O)NC3CC3)sc2n1 |
| 2.3 | 0.37 | 1700 | 9.3 | 0.97 | 200 nM | 6.66 | 269 | 2.43 | COc1nc2sc(C(=O)NC3CC3)c(N)c2c(C)c1I |
| 12.9 | 1.11 | – | 77.6 | 1.89 | 400 nM | 6.45 | – | – | Cc1nc2sc(C(=O)NC3CC3)c(N)c2c(C)c1Cl |
| inactive | inactive | – | inactive | inactive | inactive | inactive | – | – | COc1nc2sc(C(=O)NC3CC3)c(NC(C)=O)c2c(C)c1Cl |
| 2.8 | 0.44 | 3200 | 15.5 | 1.19 | 500 nM | 6.29 | 123 | 2.09 | CCCCNC(=O)c1sc2nc(OC)c(Cl)c(C)c2c1N |

| Compound | Intrinsic activity [1] | log(IA) [1] | Ki [2] [nM] | Activity [3] | log(activity) [3] | Kb [4] | pKb [4] | Activity [5] | log(activity) [5] |
| --- | --- | --- | --- | --- | --- | --- | --- | --- | --- |
| COc1nc2sc(C(=O)NC3CC3)c(N)c2c(C)c1Cl | 8.5 | 0.93 | 400 | 240 | 2.38 | 400 nM | 6.41 | 1740 | 3.24 |
